The numbers were not newly measured in US20250114486A1, “MARKED FATTY ACID DERIVATIVE, PRECURSOR COMPOUND THEREOF, AND USE THEREOF IN CONTRAST AGENT” (BEIJING NORMAL UNIVERSITY, priority 2022, published 2025), which cites them from elsewhere.

The conditions of this data set: rats, reference 4, cited from earlier work.

Where two headings read alike, the source gives them in different places.

In the case of `CC(CCCCCCCCCCCCc1ccc([123I])cc1)CC(=O)O` (centres unmarked) [[^123I]BMIPP], the Heart-to-Lungs ratio (30 min after injection) is given as 3.16, the Heart-to-Lungs ratio (60 min after injection) was 3.52 and the Heart-to-Lungs ratio (240 min after injection) is 2.49. Moreover, the Heart-to-Blood ratio (30 min post-injection) is reported as 2.27, the Heart-to-Blood ratio (60 min post-injection) is 2.51 and the Heart-to-Blood ratio (240 min post-injection) is recorded as 2.01. Further, the “absolute myocardial uptake value” reads like this: (30 min post-injection) 3.63 % ID/g; (60 min post-injection) 4.26 % ID/g; (240 min post-injection) 2.27 % ID/g. Besides, the Heart-to-Liver ratio was 2.22 (60 min after injection) and 2.39 (240 min after injection).
